Experimental data reported in US12528761B2, “Thyromimetics” (Autobahn Therapeutics, Inc., priority 2020, dated 2026).

The molecules below were run against T1, recombinant human FAAH (rhFAAH) (Homo sapiens, UniProt O00519) (assay: FAAH substrate evaluation (formation of acid metabolite, LC-MS/MS)). Settings: 0.5 ng/μL rhFAAH, 1 μM test compound, pH 8.0, room temperature, 0-60 minutes.
T1 construct: purchased Cayman Chemical (Ann Arbor, MI, USA)
T1 sequence (O00519 1-579): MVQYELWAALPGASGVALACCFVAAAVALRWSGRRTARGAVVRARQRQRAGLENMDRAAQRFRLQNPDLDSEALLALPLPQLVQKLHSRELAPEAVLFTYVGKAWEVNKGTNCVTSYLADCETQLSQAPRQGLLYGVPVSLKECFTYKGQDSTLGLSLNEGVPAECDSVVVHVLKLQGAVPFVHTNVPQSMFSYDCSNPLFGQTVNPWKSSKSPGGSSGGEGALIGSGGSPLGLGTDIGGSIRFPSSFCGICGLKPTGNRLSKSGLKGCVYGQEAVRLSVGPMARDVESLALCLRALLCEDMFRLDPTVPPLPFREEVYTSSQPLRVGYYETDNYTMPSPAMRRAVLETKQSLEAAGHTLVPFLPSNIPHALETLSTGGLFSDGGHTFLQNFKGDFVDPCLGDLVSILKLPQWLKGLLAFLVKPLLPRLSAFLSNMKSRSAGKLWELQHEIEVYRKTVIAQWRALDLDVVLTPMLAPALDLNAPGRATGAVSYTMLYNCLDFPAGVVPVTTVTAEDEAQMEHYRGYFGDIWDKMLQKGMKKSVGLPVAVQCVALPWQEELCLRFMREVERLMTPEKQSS
Type: biochemical
Design: key: A: ke is equal to or less than 1.0; B: ke is greater than 1.0 and less than or equal to 2.5; C: ke is greater than 2.5; NC: no conversion
Experimental: Purified recombinant human FAAH (rhFAAH) was purchased from Cayman Chemical (Ann Arbor, MI, USA). The total volume for each incubation was 400 μL containing a final 0.5 ng/μL rhFAAH, 1 μM test compound, 1.25% ethanol or 1 μM PF-3845 (FAAH inhibitor), and 0.1% bovine serum albumin in Tris-EDTA buffer at pH 8.0). The positive control was LL-341001. The incubation was conducted at the room temperature. At 0, 5, 15, 30 and 60 minutes, an aliquot of 30 μL reaction mixtures was removed and mixed with 300 μL acetonitrile containing 5 ng/mL terfenadine and 10 ng/mL tolbutamide as internal standards to quench the reaction. The resulting mixture was centrifuged at 4000 rpm, 4° C. for 15 minutes, and 100 μL supernatant was ready for LC-MS/MS analysis to measure the formation of acid metabolite.
Acquity Ultra Performance LC system from Waters was used for sample analysis. The chromatography was performed on a reverse phase Kinetex 2.6 μm C18 column, 2.1×30 mm, 100 Å. The mobile phase A comprised of 0.1% formic acid in water and mobile phase B comprised of 0.1% formic acid in acetonitrile with a 2-min run time at the flow rate of 0.8 mL/min for the acid metabolite from positive control or a 1.5 min run time at the flow rate of 0.9 mL/min for the acid metabolite of test compounds. The mass spectrometer (API-5500 and API Q Trap 4000 Applied Biosystems/MDS SCIEX Instruments, Framingham, MA, USA) was operated under ESI positive or negative ion MRM mode.
The formation of acid metabolite was monitored and quantified using one calibration point of 1 μM. The observed rate constant (ke) for the acid metabolite formation was calculated by plotting the metabolite concentration versus time of incubation with the slope being ke and is shown in Table 4.

SMILES	ke, observed rate constant for the acid metabolite formation
CC(C)c1cc(Cc2c(Cl)cc(CSCC(=O)N(C)C)cc2Cl)ccc1O [Compound 191, 2-((3,5-dichloro-4-(4-hydroxy-3-isopropylbenzyl)benzyl)thio)-N,N-dimethylacetamide]	NC
CC(C)CNC(=O)CNc1cc(Cl)c(Cc2ccc(O)c(C(C)C)c2F)c(Cl)c1F [Compound 164, 2-((3,5-dichloro-2-fluoro-4-(2-fluoro-4-hydroxy-3-isopropylbenzyl)phenyl)amino)-N-isobutylacetamide]	NC
COc1ccc(NC(=O)CNc2cc(Cl)c(Cc3ccc(O)c(C(C)C)c3F)c(Cl)c2F)nn1 [Compound 159, 2-((3,5-dichloro-2-fluoro-4-(2-fluoro-4-hydroxy-3-isopropylbenzyl)phenyl)amino)-N-(6-methoxypyridazin-3-yl)acetamide]	B (ke is greater than 1.0 and less than or equal to 2.5)
Cc1cc(SCC(N)=O)cc(Cl)c1Cc1ccc(O)c(C(C)C)c1F [Compound 234, 2-((3-chloro-4-(2-fluoro-4-hydroxy-3-isopropylbenzyl)-5-methylphenyl)thio)acetamide]	C (ke is greater than 2.5)
CC(C)c1cc(Cc2c(Cl)cc(SCC(=O)Nc3cccnc3)cc2Cl)ccc1O [Compound 170, 2-((3,5-dichloro-4-(4-hydroxy-3-isopropylbenzyl)phenyl)thio)-N-(pyridin-3-yl)acetamide]	C (ke is greater than 2.5)
CNC(=O)CCc1cc(Cl)c(Cc2ccc(O)c(C(C)C)c2)c(Cl)c1 [Compound 12, 3-(3,5-dichloro-4-(4-hydroxy-3-isopropylbenzyl)phenyl)-N-methylpropanamide]	A (ke is equal to or less than 1.0)
CNC(=O)CCc1cc(Cl)c(Cc2ccc(O)c(C(C)C)c2F)c(Cl)c1 [Compound 41, 3-(3,5-dichloro-4-(2-fluoro-4-hydroxy-3-isopropylbenzyl)phenyl)-N-methylpropanamide]	A (ke is equal to or less than 1.0)
CC(C)c1c(O)ccc(Cc2c(Cl)cc(NCC(=O)Nc3cccnn3)c(F)c2Cl)c1F [Compound 157, 2-((3,5-dichloro-2-fluoro-4-(2-fluoro-4-hydroxy-3-isopropylbenzyl)phenyl)amino)-N-(pyridazin-3-yl)acetamide]	B (ke is greater than 1.0 and less than or equal to 2.5)
CC(C)c1c(O)ccc(Cc2c(Cl)cc(NCC(=O)NCCCF)c(F)c2Cl)c1F [Compound 155, 2-((3,5-dichloro-2-fluoro-4-(2-fluoro-4-hydroxy-3-isopropylbenzyl)phenyl)amino)-N-(3-fluoropropyl)acetamide]	A (ke is equal to or less than 1.0)
CC(C)c1cc(Cc2c(Cl)cc(SCC(N)=O)cc2Cl)ccc1O [Compound 179, 2-((3,5-dichloro-4-(4-hydroxy-3-isopropylbenzyl)phenyl)thio)acetamide]	C (ke is greater than 2.5)
CC(C)c1c(O)ccc(Cc2c(Cl)cc(NCC(=O)Nc3ccnnc3)c(F)c2Cl)c1F [Compound 162, 2-((3,5-dichloro-2-fluoro-4-(2-fluoro-4-hydroxy-3-isopropylbenzyl)phenyl)amino)-N-(pyridazin-4-yl)acetamide]	C (ke is greater than 2.5)
CNC(=O)/C(C)=C/c1cc(Cl)c(Cc2ccc(O)c(C(C)C)c2)c(C)c1F [Compound 237, (E)-3-(5-chloro-2-fluoro-4-(4-hydroxy-3-isopropylbenzyl)-3-methylphenyl)-N,2-dimethylacrylamide]	A (ke is equal to or less than 1.0)
CNC(=O)Cc1cc(Cl)c(Cc2ccc(O)c(C(C)C)c2)c(Cl)c1 [Compound 7, 2-(3,5-dichloro-4-(4-hydroxy-3-isopropylbenzyl)phenyl)-N-methylacetamide]	NC
CNC(=O)/C(C)=C/c1cc(Cl)c(Cc2ccc(O)c(C(C)C)c2F)c(Cl)c1 [Compound 146, (E)-3-(3,5-dichloro-4-(2-fluoro-4-hydroxy-3-isopropylbenzyl)phenyl)-N,2-dimethylacrylamide]	A (ke is equal to or less than 1.0)
CC(C)c1cc(Cc2c(Cl)cc(SCC(=O)NCC3CC3)cc2Cl)ccc1O [Compound 181, N-(cyclopropylmethyl)-2-((3,5-dichloro-4-(4-hydroxy-3-isopropylbenzyl)phenyl)thio)acetamide]	A (ke is equal to or less than 1.0)
CNC(=O)CSCc1cc(Cl)c(Cc2ccc(O)c(C(C)C)c2F)c(Cl)c1 [Compound 147, 2-((3,5-dichloro-4-(2-fluoro-4-hydroxy-3-isopropylbenzyl)benzyl)thio)-N-methylacetamide]	C (ke is greater than 2.5)
CNC(=O)CNc1cc(C)c(Cc2ccc(O)c(C(C)C)c2)c(Cl)c1F [Compound 135, 2-((3-chloro-2-fluoro-4-(4-hydroxy-3-isopropylbenzyl)-5-methylphenyl)amino)-N-methylacetamide]	A (ke is equal to or less than 1.0)
CC(C)c1cc(Cc2c(Cl)cc(SCC(=O)NCc3ccccc3)cc2Cl)ccc1O [Compound 184, N-benzyl-2-((3,5-dichloro-4-(4-hydroxy-3-isopropylbenzyl)phenyl)thio)acetamide]	A (ke is equal to or less than 1.0)
CC(C)c1c(O)ccc(Cc2c(Cl)cc(NCC(=O)N[C@@H]3C[C@@H]3F)c(F)c2Cl)c1F [Compound 156, 2-((3,5-dichloro-2-fluoro-4-(2-fluoro-4-hydroxy-3-isopropylbenzyl)phenyl)amino)-N-((1R,2S)-2-fluorocyclopropyl)acetamide]	A (ke is equal to or less than 1.0)
CNC(=O)CNc1cc(Cl)c(Cc2ccc(O)c(C(C)C)c2)c(C)c1F [Compound 216, 2-((5-chloro-2-fluoro-4-(4-hydroxy-3-isopropylbenzyl)-3-methylphenyl)amino)-N-methylacetamide]	A (ke is equal to or less than 1.0)
CNC(=O)CNc1cc(C)c(Cc2ccc(O)c(C(C)C)c2)c(Cl)c1 [Compound 240, 2-((3-chloro-4-(4-hydroxy-3-isopropylbenzyl)-5-methylphenyl)amino)-N-methylacetamide]	NC
CNC(=O)/C=C/c1cc(Cl)c(Cc2ccc(O)c(C(C)C)c2F)c(Cl)c1 [Compound 115, (E)-3-(3,5-dichloro-4-(2-fluoro-4-hydroxy-3-isopropylbenzyl)phenyl)-N-methylacrylamide]	NC
CNC(=O)CNc1cc(Cl)c(Cc2ccc(O)c(C(C)C)c2F)c(Cl)c1 [Compound 47, 2-((3,5-dichloro-4-(2-fluoro-4-hydroxy-3-isopropylbenzyl)phenyl)amino)-N-methylacetamide]	A (ke is equal to or less than 1.0)
C=C(Cc1cc(Cl)c(Cc2ccc(O)c(C(C)C)c2F)c(Cl)c1)C(=O)NC [Compound 177, 2-(3,5-dichloro-4-(2-fluoro-4-hydroxy-3-isopropylbenzyl)benzyl)-N-methylacrylamide]	NC
CNC(=O)CSCc1cc(Cl)c(Cc2ccc(O)c(C(C)C)c2)c(C)c1F [Compound 219, 2-((5-chloro-2-fluoro-4-(4-hydroxy-3-isopropylbenzyl)-3-methylbenzyl)thio)-N-methylacetamide]	A (ke is equal to or less than 1.0)
CNC(=O)CSCc1cc(Cl)c(Cc2ccc(O)c(C(C)C)c2)c(Cl)c1 [Compound 193, 2-((3,5-dichloro-4-(4-hydroxy-3-isopropylbenzyl)benzyl)thio)-N-methylacetamide]	NC
